Values joined by “and” are separate entries in the source; they are usually repeats but may differ in a detail not shown here. Identical values can stand only once. Active and inactive are the calls of the source. No rule for the calls is given here.
biological target: Peptidyl-prolyl cis-trans isomerase FKBP1A (Homo sapiens) (UniProt P62942); assay: small-molecule binding to FKBP12 – biophysical, NMR detection (AID 608); details: purified FKBP12
Sequence (P62942 whole entry, looked up): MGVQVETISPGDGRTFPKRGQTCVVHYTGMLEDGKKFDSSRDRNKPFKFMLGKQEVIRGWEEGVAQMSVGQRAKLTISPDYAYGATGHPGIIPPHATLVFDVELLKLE

Row | Compound | Kd
1 | O=S1(=O)CCC2CC=CCC21 (stereo not given) | > 4 mM (inactive)
2 | CCC1(CC)C(=O)N=C(N)NC1=O | > 4 mM (inactive)
3 | CCn1ccc(C(=O)Nc2nccs2)n1 | > 4 mM (inactive)
4 | CC1(C)C2CC(=O)[C@]3(C)C(CC[C@@]4(C)[C@H](c5ccoc5)OC(=O)C5OC543)[C@@]2(C)[C@@H](O)C[C@H]1O (stereo not given in full) | > 4 mM (inactive)
5 | O=C(Cc1cccs1)N1CCOCC1 | > 4 mM (inactive)
6 | O=C(COc1ccc(Cl)cc1Cl)N1CCOCC1 | inactive
7 | COc1ccc(NC(=O)C(N)=O)cc1Cl | > 4 mM (inactive)
8 | OCc1nc2ccccc2s1 | > 4 mM (inactive)
9 | Cc1oc(-c2ccccc2)cc1C(N)=O | > 4 mM (inactive)
10 | NC(=O)c1ccc(N=Cc2ccc[nH]2)cc1 | > 4 mM (inactive)
11 | CC(=O)N1CCN(C2CCSC2)CC1 (stereo not given) | > 4 mM (inactive)
12 | O=C(Nc1cnccn1)c1cccc(C(F)(F)F)c1 | > 4 mM (inactive)
13 | CC1=C(C(N)=O)C(c2ccccc2)NC(=O)N1 (stereo not given) | > 4 mM (inactive)
14 | Cn1cnc([N+](=O)[O-])c1Sc1ncnc2nc[nH]c12 | > 4 mM (inactive)
15 | Cn1nc(-c2ccccc2)cc1N | > 4 mM (inactive)
16 | Cn1ncc(SCc2ccco2)c(Cl)c1=O | > 4 mM (inactive)
17 | NC(=O)C1CCCN1S(=O)(=O)c1ccc(F)cc1 (stereo not given) | > 4 mM (inactive)
18 | C=C1CCC2[C@](C)(CO)[C@H](O)CC[C@@]2(C)[C@@H]1C/C=C1/C(=O)OC[C@H]1O (stereo not given in full) | > 4 mM (inactive)
19 | O=C(O)Cc1noc2ccccc12 | > 4 mM (inactive)
20 | Cc1scc(C(=O)Nc2ccon2)c1-c1ccccc1 | > 4 mM (inactive)
21 | Cc1oc(-c2ccccc2)cc1CO | > 4 mM (inactive)
22 | Cc1ccc(/C=C/C(=O)O)cc1S(=O)(=O)NCCO | > 4 mM (inactive)
23 | Cc1cc(N2CCCC2=O)c(N)cc1N | > 4 mM (inactive)

Row | Compound | Kd
24 | Fc1ccc(-c2n[nH]c(=S)n2CC2CCCO2)cc1 (stereo not given) | > 4 mM (inactive)
25 | COC(=O)[C@@H]1OC(=O)C2OC23[C@@]1(C)CCC1[C@]2(C)C(C[C@H](O)[C@]13C)C(C)(C)[C@H](OC(C)=O)C[C@@H]2OC(C)=O (stereo not given in full) | > 4 mM (inactive)
26 | NCC(O)c1ccc(O)cc1 (stereo not given) | > 4 mM (inactive)
27 | Cn1c(NCC(=O)O)nc2c1c(=O)[nH]c(=O)n2C | > 4 mM (inactive)
28 | C[N+](C)(C)CC(=O)[O-] | > 4 mM (inactive)
29 | NN1C(=O)/C(=C/c2ccc(O)c(O)c2)SC1=S | > 4 mM (inactive)
30 | O=C(O)C1Cc2c([nH]c3ccccc23)CN1 (stereo not given) | > 4 mM (inactive)
31 | COc1cc2c(cc1OC)[C@@H]1C(=O)c3ccc4oc(C(C)C)cc4c3O[C@@H]1CO2 | > 4 mM (inactive)
32 | COc1c(-c2ccccc2)oc2c(OC)cccc2c1=O | > 4 mM (inactive)
33 | Cc1nnc(SCc2cccs2)[nH]c1=O | > 4 mM (inactive)
34 | COC(=O)C[C@@H]1C2(C)C(=O)[C@@H](CC3C2CC[C@]2(C)C3CC(=O)O[C@H]2c2ccoc2)[C@H](OC(C)=O)C1(C)C (stereo not given in full) | > 4 mM (inactive)
35 | COc1cccc(NC(=O)c2cnn(C)c2Cl)c1 | > 4 mM (inactive)
36 | O=C1NC(=S)S/C1=C/c1ccncc1 | > 4 mM (inactive)
37 | CCCCCc1c2c(cc(O)c1C(=O)O)OC(=O)c1c(cc(OC)cc1C(=O)CCCC)O2 | > 4 mM (inactive)
38 | Nc1ncnc(NC2CCS(=O)(=O)C2)c1[N+](=O)[O-] (stereo not given) | > 4 mM (inactive)
39 | O=c1c(O)cccc2cc(O)c(O)c(O)c12 | > 4 mM (inactive)
40 | COC(=O)[C@@H]1C(O)CC[C@H]2CN3CCc4c([nH]c5ccccc45)[C@@H]3C[C@@H]21 (stereo not given in full) | > 4 mM (inactive)
41 | O=C(O)C1CCN(C(=O)c2cccs2)CC1 | > 4 mM (inactive)
42 | CC1CCN(C(=O)c2ccc3c(c2)OCCO3)CC1 | > 4 mM (inactive)
43 | O=C1CCC(=O)N1c1cccc([N+](=O)[O-])c1 | > 4 mM (inactive)
44 | NC12CC3CC(C1)CC(O)(C3)C2 | > 4 mM (inactive)
45 | C[C@H]1[C@H](C)CC[C@]2(CO)CC[C@]3(C)C(=CCC4[C@@]5(C)CC[C@H](O)C(C)(C)C5CC[C@]43C)[C@H]12 (stereo not given in full) | > 4 mM (inactive)
46 | CN1CCC(N(C)Cc2cccnc2)CC1 | > 4 mM (inactive)

Row | Compound | Kd
47 | CS(=O)(=O)N1CCC(C(=O)NC2CCCC2)CC1 | > 4 mM (inactive)
48 | O=C(NC(=O)N1CCOCC1)c1ccccc1 | > 4 mM (inactive)
49 | CC1CN(C2=NCCN2)CC(C)O1 (stereo not given) | > 4 mM (inactive)
50 | O=C(Nc1ccccc1Cl)c1cnccn1 | > 4 mM (inactive)
51 | Fc1cccc(Cl)c1CN1CCNCC1 | > 4 mM (inactive)
52 | Cc1nc2ccccc2c(=O)n1NC(=O)C1CCCCC1 | > 4 mM (inactive)
53 | c1ccc(C[N+]23CCN(CC2)CC3)cc1 | > 4 mM (inactive)
54 | Cn1cnc2c(cnn2-c2ccccc2)c1=O | > 4 mM (inactive)
55 | CN(C)C1CCS(=O)(=O)C1 (stereo not given) | > 4 mM (inactive)
56 | CC(=O)Oc1c(C)c(C)c2c(c1C)CCC(C)(CCCC(C)CCCC(C)CCCC(C)C)O2 (stereo not given) | > 4 mM (inactive)
57 | CN1C(=O)CC(=O)N(C)c2ccccc21 | > 4 mM (inactive)
58 | NC(CC(=O)O)C(=O)Nc1ccc(Cl)cc1 (stereo not given) | > 4 mM (inactive)
59 | COc1cc(OC)c(-c2nc3cnccc3n2C)cc1OC | > 4 mM (inactive)
60 | Cc1nnc2n(c1=O)N=C(c1ccccc1)CS2 | > 4 mM (inactive)
61 | CCC(=O)NC(=S)Nc1ccc(C(N)=O)cc1 | > 4 mM (inactive)
62 | NC(CSCSCC(N)C(=O)O)C(=O)O (stereo not given) | > 4 mM (inactive)
63 | C=CC(C)(O)CC/C=C(\C)CCC=C(C)C (stereo not given) | > 4 mM (inactive)
64 | CC1=C2C(O)C(=O)OC3CC4C(C)(C)C(=O)C=C[C@]4(C)C(CC1)[C@]23C (stereo not given in full) | > 4 mM (inactive)
65 | CN1CCn2c1nc(N1CCOCC1)nc2=O | > 4 mM (inactive)
66 | CSc1ccccc1NC(=O)Cn1c(-c2cscn2)nc2ccccc21 | > 4 mM (inactive)
67 | O=C(NCCCSc1ncccn1)Nc1ncccn1 | > 4 mM (inactive)
68 | COc1ccc(C(=O)O)cc1OC | > 4 mM (inactive)
69 | S=C(c1ccc(N2CCOCC2)cc1)N1CCCCC1 | > 4 mM (inactive)

Row | Compound | Kd
70 | CC(C)Oc1ccc(NC(N)=O)cc1 | > 4 mM (inactive)
71 | CC1CCN(C(=S)c2ccccc2O)CC1 | > 4 mM (inactive)
72 | Cn1ncc(N2CCOCC2)c(Cl)c1=O | > 4 mM (inactive)
73 | Cc1cccc(NS(=O)(=O)c2cccs2)n1 | > 4 mM (inactive)
74 | O=C1C2CCCCC2C(=O)N1c1ccc(O)cc1 (stereo not given) | > 4 mM (inactive)
75 | CSc1ccc(/C=N/n2c(C)nnc2C)cc1 | > 4 mM (inactive)
76 | Cc1nc(NCc2ccco2)nc2c1C(=O)CC(C)C2 (stereo not given) | > 4 mM (inactive)
77 | OCc1ccccc1N1CCOCC1 | > 4 mM (inactive)
78 | Cc1ccc(NS(=O)(=O)c2ccc(OCC(=O)N3CCOCC3)cc2)cc1 | inactive
79 | OCC(O)C(O)C(O)CO (stereo not given) | > 4 mM (inactive)
80 | N#CCSc1nc(-c2ccccc2)cs1 | > 4 mM (inactive)
81 | NC(=O)C1CCN(C(=S)Nc2ccccc2)CC1 | > 4 mM (inactive)
82 | O=C(C1COc2ccccc2O1)N1CCOCC1 (stereo not given) | inactive
83 | C[C@@H]1CC[C@@]2(OC1)OC1CC3C4CC=C5C[C@@H](O)CC[C@]5(C)C4CC[C@]3(C)C1[C@@H]2C (stereo not given in full) | > 4 mM (inactive)
84 | C=CC1=C(C)/C(=C/c2[nH]c(Cc3[nH]c(/C=C4\NC(=O)C(C)=C4C=C)c(C)c3CCC(=O)O)c(CCC(=O)O)c2C)NC1=O | > 4 mM (inactive)
85 | C1CCN2C[C@@H]3C[C@H](CN4CCCC[C@@H]34)[C@H]2C1 | > 4 mM (inactive)
86 | Cc1cccc(C)c1NC(=O)/C=C/C(=O)O | > 4 mM (inactive)
87 | Cc1cc(C(=O)O)n[nH]1 | > 4 mM (inactive)
88 | Nc1cc(N)nc(SCc2cccnc2)n1 | > 4 mM (inactive)
89 | Nc1[nH]c(=S)ncc1S(=O)(=O)c1ccccc1 | > 4 mM (inactive)
90 | COc1cc2c(cc1OC)C(=O)OC2 | > 4 mM (inactive)
91 | O=C(O)c1ncoc1-c1ccccc1 | > 4 mM (inactive)
92 | CC(=O)Oc1ccc2c(c1OC(C)=O)OCC1(O)Cc3c(cc(OC(C)=O)c(OC(C)=O)c3OC(C)=O)C21 (stereo not given) | > 4 mM (inactive)

Row | Compound | Kd
93 | O=C1COc2ccc(C(=O)c3ccccc3)cc2CN1 | > 4 mM (inactive)
94 | Oc1ccccc1-c1cc(C(F)(F)F)[nH]n1 | > 4 mM (inactive)
95 | CC(C)(C)NC(=O)N1CCC(C(=O)O)CC1 | > 4 mM (inactive)
96 | CCC[C@H]1CC2=C(C[C@@H](CC)CC3=C1C(=O)OC3=O)C(=O)OC2=O | > 4 mM (inactive)
97 | COc1ccc2c(=O)c(OC)c(-c3ccccc3)oc2c1 | > 4 mM (inactive)
98 | CC(=O)O[C@@H]1CC2C(C)(C)CCC(=O)[C@]2(C)C2CC[C@@]3(C)[C@H](c4ccoc4)OC(=O)C4OC43[C@@]21C (stereo not given in full) | > 4 mM (inactive)
99 | COC(=O)CCC(C)[C@H]1CCC2C3C(C[C@H](O)[C@@]21C)[C@@]1(C)CC[C@@H](O)C[C@H]1C[C@H]3O (stereo not given in full) | > 4 mM (inactive)
100 | Cc1nn2c(=O)nc3sc4c(c3c2[nH]c1=O)CCCC4 | > 4 mM (inactive)
101 | O=c1cnnc(NCc2ccc(F)cc2)[nH]1 | > 4 mM (inactive)
102 | Cc1cc2c(=O)n(C)c(SCC(N)=O)nc2s1 | > 4 mM (inactive)
103 | O=C1CSC(c2ccccc2)N1 (stereo not given) | > 4 mM (inactive)
104 | O=C1C2C3C=CC(C3)C2C(=O)N1c1cccnc1 (stereo not given) | > 4 mM (inactive)
105 | c1ccc(SCc2nc(-c3ccncc3)no2)cc1 | 0.314 mM and 0.167 mM
106 | CN(C)c1nc(N2CCOCC2)nc(N2CCOCC2)n1 | > 4 mM (inactive)
107 | CCc1noc(C)c1C(=O)N1CCOCC1 | > 4 mM (inactive)
108 | O=C(O)c1ccc(-c2cccs2)s1 | > 4 mM (inactive)
109 | Cc1nnc(Nc2cccnc2)[nH]c1=O | > 4 mM (inactive)
110 | Oc1cc2c(cc1O)C1c3ccc(O)c(O)c3OCC1(O)C2 (stereo not given) | > 4 mM (inactive)
111 | CCN1CCC(NC2CCCCNC2=O)CC1 (stereo not given) | > 4 mM (inactive)
112 | CC(O)C(=O)N/N=C/c1ccccc1 (stereo not given) | > 4 mM (inactive)
113 | Cc1cc(=O)n2[nH]c(N)nc2n1 | > 4 mM (inactive)
114 | O=C(O)c1cc2ccccc2o1 | > 4 mM (inactive)
115 | COc1ccc2c(c1OC)C(=O)O[C@@H]2[C@@H]1c2cc3c(cc2CCN1C)OCO3 | > 4 mM (inactive)

— PubChem BioAssay AID608 (Sanford-Burnham Center for Chemical Genomics, 2007)
